Values belong to the compound of their own block, whether it stands above or below them. Calls of active or inactive are those of the source. The rule behind the calls is not given here.
Key:
[1] = Drug distribution in C57BL/6 mouse brain 10 mg/kg, po and measured at 1 hrs post dose by LC-MS/MS analysis; format: ADME, organism-based; settings: read-out: Ct
[2] = AUC in Wistar rat at 3 mg/kg, iv or 10 mg/kg, po and measured up to 24 hrs by LC-MS/MS analysis; format: ADME, organism-based; parameters: dose 3 mg/kg, time < 24 hrs, route iv; settings: in vivo
[3] = Drug distribution in C57BL/6 mouse adipose tissue 10 mg/kg, po and measured at 2 hrs post dose by LC-MS/MS analysis; format: ADME, organism-based; settings: read-out: Ct
[4] = Drug distribution in C57BL/6 mouse plasma 10 mg/kg, po and measured at 1 hrs post dose by LC-MS/MS analysis; format: ADME, organism-based
[5] = Oral bioavailability in C57BL/6 mouse 10 mg/kg or 3 mg/kg, iv and measured up to 24 hrs by LC-MS/MS analysis; format: ADME, organism-based; settings: in vivo
[6] = Cmax in C57BL/6 mouse at 3 mg/kg, iv or 10 mg/kg, po and measured up to 24 hrs by LC-MS/MS analysis; format: ADME, organism-based; parameters: dose 3 mg/kg, time < 24 hrs, route iv; settings: in vivo
[7] = Drug distribution in C57BL/6 mouse plasma 10 mg/kg, po and measured at 8 hrs post dose by LC-MS/MS analysis; format: ADME, organism-based
[8] = Clearance in C57BL/6 mouse at 3 mg/kg, iv or 10 mg/kg, po and measured up to 24 hrs by LC-MS/MS analysis; format: ADME, organism-based; settings: in vivo
[9] = Metabolic stability in human liver microsomes assessed as parent compound remaining at 1 uM and measured at 30 mins by LC-MS/MS analysis; format: ADME, Microsome; settings: read-out: Stability
[10] = Metabolic stability in rat liver microsomes assessed as parent compound remaining at 1 uM and measured at 30 mins by LC-MS/MS analysis; format: ADME, Microsome; settings: read-out: Stability
[11] = Plasma protein binding in rat; format: ADME, cell-free; settings: read-out: PPB
[12] = Drug distribution in C57BL/6 mouse liver 10 mg/kg, po and measured at 8 hrs post dose by LC-MS/MS analysis; format: ADME, organism-based; settings: read-out: Ct
[13] = Drug distribution in C57BL/6 mouse plasma 10 mg/kg, po and measured at 2 hrs post dose by LC-MS/MS analysis; format: ADME, organism-based
[14] = Cmax in Wistar rat at 3 mg/kg, iv or 10 mg/kg, po and measured up to 24 hrs by LC-MS/MS analysis; format: ADME, organism-based; parameters: dose 3 mg/kg, time < 24 hrs, route iv; settings: in vivo
[15] = Tmax in C57BL/6 mouse at 3 mg/kg, iv or 10 mg/kg, po and measured up to 24 hrs by LC-MS/MS analysis; format: ADME, organism-based; settings: in vivo
[16] = AUC in C57BL/6 mouse at 3 mg/kg, iv or 10 mg/kg, po and measured up to 24 hrs by LC-MS/MS analysis; format: ADME, organism-based; parameters: time < 24 hrs, dose 3 mg/kg, route iv; settings: in vivo
[17] = Drug distribution in C57BL/6 mouse skeletal muscle 10 mg/kg, po and measured at 2 hrs post dose by LC-MS/MS analysis; format: ADME, organism-based, Skeletal muscle tissue; settings: read-out: Ct
[18] = Tmax in Wistar rat at 3 mg/kg, iv or 10 mg/kg, po and measured up to 24 hrs by LC-MS/MS analysis; format: ADME, organism-based; settings: in vivo
[19] = Half life in C57BL/6 mouse at 3 mg/kg, iv or 10 mg/kg, po and measured up to 24 hrs by LC-MS/MS analysis; format: ADME, organism-based; settings: in vivo
[20] = Drug distribution in C57BL/6 mouse brain 10 mg/kg, po and measured at 2 hrs post dose by LC-MS/MS analysis; format: ADME, organism-based; settings: read-out: Ct
[21] = Drug distribution in C57BL/6 mouse liver 10 mg/kg, po and measured at 1 hrs post dose by LC-MS/MS analysis; format: ADME, organism-based; settings: read-out: Ct
[22] = Drug distribution in C57BL/6 mouse adipose tissue 10 mg/kg, po and measured at 1 hrs post dose by LC-MS/MS analysis; format: ADME, organism-based; settings: read-out: Ct
[23] = Drug distribution in C57BL/6 mouse adipose tissue 10 mg/kg, po and measured at 8 hrs post dose by LC-MS/MS analysis; format: ADME, organism-based; settings: read-out: Ct
[24] = Plasma protein binding in mouse; format: ADME, cell-free; settings: read-out: PPB (converted)
[25] = target: hERG (KCNH2) (Homo sapiens, UniProt Q12809); experiment: Displacement of [3H]astemizole from human ERG expressed in HEK293 cell membrane at 10 uM for 2 hrs by Radiometric displacement assay; format: toxicity; settings: HEK293 cell membranes that express hERG, probe [3H]astemizole
hERG (KCNH2), sequence (Q12809 whole entry): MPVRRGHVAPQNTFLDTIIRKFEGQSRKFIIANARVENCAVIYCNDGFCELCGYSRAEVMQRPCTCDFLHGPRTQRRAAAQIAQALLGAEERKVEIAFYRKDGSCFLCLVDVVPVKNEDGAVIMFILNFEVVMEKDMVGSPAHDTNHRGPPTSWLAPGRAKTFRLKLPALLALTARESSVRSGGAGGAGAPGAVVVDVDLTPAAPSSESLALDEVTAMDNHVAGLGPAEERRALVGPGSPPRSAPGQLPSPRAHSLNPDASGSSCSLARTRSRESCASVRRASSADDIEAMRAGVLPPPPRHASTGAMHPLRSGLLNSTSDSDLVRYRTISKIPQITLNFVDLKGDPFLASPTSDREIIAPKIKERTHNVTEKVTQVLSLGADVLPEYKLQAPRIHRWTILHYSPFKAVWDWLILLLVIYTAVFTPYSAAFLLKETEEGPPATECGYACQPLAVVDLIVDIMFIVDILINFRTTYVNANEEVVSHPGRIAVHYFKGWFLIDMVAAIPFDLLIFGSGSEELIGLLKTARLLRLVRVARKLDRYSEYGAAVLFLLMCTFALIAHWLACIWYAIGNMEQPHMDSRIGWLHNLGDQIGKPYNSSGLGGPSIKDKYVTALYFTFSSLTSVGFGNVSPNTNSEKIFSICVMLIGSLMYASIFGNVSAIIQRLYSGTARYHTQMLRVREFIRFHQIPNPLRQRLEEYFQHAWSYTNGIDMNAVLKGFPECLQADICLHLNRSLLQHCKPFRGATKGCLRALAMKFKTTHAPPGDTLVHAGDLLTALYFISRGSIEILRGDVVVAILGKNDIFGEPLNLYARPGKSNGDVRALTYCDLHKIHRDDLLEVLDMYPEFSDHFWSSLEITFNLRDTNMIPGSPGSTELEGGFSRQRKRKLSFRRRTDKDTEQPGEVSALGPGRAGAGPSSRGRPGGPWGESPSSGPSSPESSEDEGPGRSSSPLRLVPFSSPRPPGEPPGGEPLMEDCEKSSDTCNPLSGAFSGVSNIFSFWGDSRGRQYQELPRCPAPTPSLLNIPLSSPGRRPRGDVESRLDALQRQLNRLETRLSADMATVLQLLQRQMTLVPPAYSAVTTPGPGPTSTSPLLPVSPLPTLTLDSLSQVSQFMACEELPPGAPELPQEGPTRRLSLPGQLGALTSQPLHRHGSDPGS

[26] = Apparent permeability across apical to basolateral side in MDCK cells at 2.5 uM for 90 mins; format: ADME, cell-based, Canis lupus familiaris; settings: dog
[27] = Volume of distribution at steady state in C57BL/6 mouse at 3 mg/kg, iv or 10 mg/kg, po and measured up to 24 hrs by LC-MS/MS analysis; format: ADME, organism-based; settings: in vivo, read-out: Vdss
[28] = Drug distribution in C57BL/6 mouse skeletal muscle 10 mg/kg, po and measured at 8 hrs post dose by LC-MS/MS analysis; format: ADME, organism-based, Skeletal muscle tissue; settings: read-out: Ct
[29] = Volume of distribution at steady state in Wistar rat at 3 mg/kg, iv or 10 mg/kg, po and measured up to 24 hrs by LC-MS/MS analysis; format: ADME, organism-based; settings: in vivo, read-out: Vdss
[30] = Half life in Wistar rat at 3 mg/kg, iv or 10 mg/kg, po and measured up to 24 hrs by LC-MS/MS analysis; format: ADME, organism-based; settings: in vivo
[31] = Clearance in Wistar rat at 3 mg/kg, iv or 10 mg/kg, po and measured up to 24 hrs by LC-MS/MS analysis; format: ADME, organism-based; settings: in vivo
[32] = Metabolic stability in mouse liver microsomes assessed as parent compound remaining at 1 uM and measured at 30 mins by LC-MS/MS analysis; format: ADME, Microsome; settings: read-out: Stability
[33] = Drug distribution in C57BL/6 mouse liver 10 mg/kg, po and measured at 2 hrs post dose by LC-MS/MS analysis; format: ADME, organism-based; settings: read-out: Ct
[34] = Oral bioavailability in Wistar rat at 10 mg/kg or 3 mg/kg, iv and measured up to 24 hrs by LC-MS/MS analysis; format: ADME, organism-based; settings: in vivo
[35] = Drug distribution in C57BL/6 mouse skeletal muscle 10 mg/kg, po and measured at 1 hrs post dose by LC-MS/MS analysis; format: ADME, organism-based, Skeletal muscle tissue; settings: read-out: Ct
[36] = Solubility of compound in PBS at pH 9 incubated for 4 hrs under shaking condition by UV absorbance based analysis; format: physicochemical
[37] = target: T1, CYP1A2 (Homo sapiens, UniProt P05177); experiment: Inhibition of recombinant human CYP1A2 at 25 uM by fluorescence plate reader analysis; format: ADME
T1 sequence (P05177 whole entry): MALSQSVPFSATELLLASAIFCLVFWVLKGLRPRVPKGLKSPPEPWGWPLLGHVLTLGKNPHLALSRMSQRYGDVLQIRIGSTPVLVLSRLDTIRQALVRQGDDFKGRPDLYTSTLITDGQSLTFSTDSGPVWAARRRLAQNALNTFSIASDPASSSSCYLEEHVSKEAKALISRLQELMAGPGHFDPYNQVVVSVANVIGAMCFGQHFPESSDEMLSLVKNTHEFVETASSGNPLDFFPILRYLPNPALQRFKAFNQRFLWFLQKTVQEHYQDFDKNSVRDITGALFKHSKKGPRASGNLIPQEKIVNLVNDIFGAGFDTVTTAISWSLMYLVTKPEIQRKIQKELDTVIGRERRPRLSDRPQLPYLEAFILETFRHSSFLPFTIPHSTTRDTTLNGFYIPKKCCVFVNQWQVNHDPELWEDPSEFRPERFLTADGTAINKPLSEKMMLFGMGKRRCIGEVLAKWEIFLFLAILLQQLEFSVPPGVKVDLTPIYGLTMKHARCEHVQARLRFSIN

[38] = Solubility of compound in PBS at pH 2 incubated for 4 hrs under shaking condition by UV absorbance based analysis; format: physicochemical
[39] = Solubility of compound in PBS at pH 4 incubated for 4 hrs under shaking condition by UV absorbance based analysis; format: physicochemical
[40] = target: CYP3A4 (Homo sapiens, UniProt P08684); experiment: Inhibition of recombinant human CYP3A4 at 25 uM by fluorescence plate reader analysis; format: ADME
CYP3A4, sequence (P08684 whole entry): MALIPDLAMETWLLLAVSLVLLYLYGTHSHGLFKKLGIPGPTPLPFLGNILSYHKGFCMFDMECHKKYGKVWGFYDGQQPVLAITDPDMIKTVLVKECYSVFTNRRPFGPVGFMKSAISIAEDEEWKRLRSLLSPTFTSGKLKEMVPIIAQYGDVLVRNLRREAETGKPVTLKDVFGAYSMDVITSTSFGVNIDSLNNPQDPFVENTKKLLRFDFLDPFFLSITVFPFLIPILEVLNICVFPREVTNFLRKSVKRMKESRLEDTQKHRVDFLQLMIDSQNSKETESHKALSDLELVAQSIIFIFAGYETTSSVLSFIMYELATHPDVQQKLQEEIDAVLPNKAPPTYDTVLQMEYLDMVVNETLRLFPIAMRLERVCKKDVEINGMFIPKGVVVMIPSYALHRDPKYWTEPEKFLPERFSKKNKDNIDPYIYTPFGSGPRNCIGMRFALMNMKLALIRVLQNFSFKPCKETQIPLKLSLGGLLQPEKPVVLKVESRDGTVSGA

[41] = Solubility of compound in PBS at pH 7.4 incubated for 4 hrs under shaking condition by UV absorbance based analysis; format: physicochemical
[42] = target: CYP2D6 (Homo sapiens, UniProt P10635); experiment: Inhibition of recombinant human CYP2D6 at 10 uM by fluorescence plate reader analysis; format: ADME
CYP2D6, sequence (P10635 whole entry): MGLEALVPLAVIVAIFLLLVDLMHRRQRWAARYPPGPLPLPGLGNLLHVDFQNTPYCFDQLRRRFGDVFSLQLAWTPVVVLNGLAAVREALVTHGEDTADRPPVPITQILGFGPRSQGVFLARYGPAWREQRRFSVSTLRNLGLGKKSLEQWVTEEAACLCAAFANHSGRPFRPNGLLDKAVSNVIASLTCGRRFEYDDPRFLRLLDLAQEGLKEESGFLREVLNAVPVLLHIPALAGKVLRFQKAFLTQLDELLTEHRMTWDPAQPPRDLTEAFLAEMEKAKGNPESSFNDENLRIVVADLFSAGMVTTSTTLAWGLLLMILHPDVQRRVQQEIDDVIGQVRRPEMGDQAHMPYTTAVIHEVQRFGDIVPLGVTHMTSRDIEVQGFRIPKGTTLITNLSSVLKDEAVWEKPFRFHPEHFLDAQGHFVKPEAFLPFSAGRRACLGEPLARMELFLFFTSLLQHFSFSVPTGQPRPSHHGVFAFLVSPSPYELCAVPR

[43] = target: T2, Diacylglycerol O-acyltransferase 1 (Homo sapiens, UniProt O75907); experiment: Inhibition of human DGAT1 in serum starved HEK293 cells assessed as inhibition of triglyceride synthesis incubated for 20 mins followed by 13C-addition of 13C-oleic acid pre-complexed with BSA for 120 mins by LC-MS-based mass spectrophotometric analysis; format: cell-based
T2 sequence (O75907 whole entry): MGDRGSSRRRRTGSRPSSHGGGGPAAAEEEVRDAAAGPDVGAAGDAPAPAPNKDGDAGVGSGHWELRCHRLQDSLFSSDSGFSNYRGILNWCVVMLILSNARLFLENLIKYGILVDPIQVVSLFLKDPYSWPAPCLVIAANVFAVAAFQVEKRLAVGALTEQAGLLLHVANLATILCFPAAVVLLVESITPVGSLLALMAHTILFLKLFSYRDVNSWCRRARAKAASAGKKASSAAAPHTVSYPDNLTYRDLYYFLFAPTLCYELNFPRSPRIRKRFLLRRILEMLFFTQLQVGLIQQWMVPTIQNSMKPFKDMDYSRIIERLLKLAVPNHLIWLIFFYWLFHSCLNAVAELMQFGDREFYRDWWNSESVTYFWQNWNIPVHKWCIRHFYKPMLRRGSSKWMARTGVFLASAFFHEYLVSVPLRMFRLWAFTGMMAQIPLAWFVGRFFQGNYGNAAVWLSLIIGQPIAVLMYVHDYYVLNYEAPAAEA

[44] = target: T2, Diacylglycerol O-acyltransferase 1; experiment: Inhibition of recombinant human DGAT1 expressed in Sf9 cell membrane assessed as inhibition of triglyceride synthesis incubated for 1 hrs by LC-MS-based mass spectrophotometric analysis; format: cell membranes
[45] = tested on: Mus musculus; experiment: In vivo inhibition of DGAT1 in C57BL/6 mouse model of acute lipid challenge assessed as reduction in AUC plasma triglyceride level at 3 to 10 mg/kg, po as corn oil bolus by Oral lipid tolerance test relative to control; format: functional, organism-based; settings: dose 3-10 mg/kg
[46] = tested on: Mus musculus; experiment: In vivo inhibition of DGAT1 in C57BL/6 mouse model of acute lipid challenge assessed as reduction in chylomicron derived plasma triglyceride excursion at 3 to 10 mg/kg, po as corn oil bolus by Oral lipid tolerance test relative to control; format: functional, organism-based; settings: dose 3-10 mg/kg

concentration at 1 h [1]: 0.01 µM | AUC at 24 h [2]: 30 µM·h | concentration at 2 h [3]: 0.15 µM | concentration at 1 h [4]: 1.87 µM | bioavailability [5]: 41% | Cmax [6]: 1 µM | concentration at 8 h [7]: 0.06 µM | clearance [8]: 3.6 L/h/kg | remaining at 0.5 h, 1 µM [9]: 100% | remaining at 0.5 h, 1 µM [10]: 84% | fraction unbound [11]: 0.01 | concentration at 8 h [12]: 22.2 µM | concentration at 2 h [13]: 1.46 µM | Cmax [14]: 9.2 µM | Tmax [15]: 0.25 h | AUC at 24 h [16]: 1.6 µM·h | concentration at 2 h [17]: 0.05 µM | Tmax [18]: 1.4 h | half-life [19]: 5.7 h | concentration at 2 h [20]: 0.01 µM | concentration at 1 h [21]: 39.2 µM | concentration at 1 h [22]: 0.16 µM | concentration at 8 h [23]: 0.01 µM | fraction unbound [24]: 0.01 | Papp A→B at 1.5 h, 2.5 µM [26]: 53 nm/s | Vd [27]: 13 L/kg | concentration at 8 h [28]: 0.01 µM | Vd [29]: 0.6 L/kg | half-life [30]: 3.1 h | clearance [31]: 0.198 L/h/kg | remaining at 0.5 h, 1 µM [32]: 78% | concentration at 2 h [33]: 54.9 µM | bioavailability [34]: 38% | concentration at 1 h [35]: 0.1 µM
SMILES: O=C(O)CC1CCC2(CC1)CCN(c1ccc(NC(=O)c3nnc(Nc4ccc(F)c(F)c4)o3)cn1)CC2
inhibition at 2 h, 10 µM [25]: 10%

solubility at 4 h [36]: < 6 µM | inhibition at 25 µM [37]: 8% | solubility at 4 h [38]: 8 µM | solubility at 4 h [39]: < 6 µM | inhibition at 25 µM [40]: 12% | solubility at 4 h [41]: 37 µM | inhibition at 10 µM [42]: 7%
SMILES: O=C([O-])CC1CCC2(CC1)CCN(c1ccc(NC(=O)c3nnc(Nc4ccc(F)c(F)c4)o3)cn1)CC2.[Na+]

IC50 [43]: 0.024 µM | IC50 [44]: 0.064 µM
SMILES: O=C(O)CC1CCC2(CC1)CCC(c1ccc(NC(=O)c3nnc(Nc4ccc(F)c(F)c4)o3)cc1)CC2 (stereo in doubt; 8a)

SMILES: O=C(Nc1ccc(N2CCC3(CC2)CC(C(=O)O)C3)nc1)c1nnc(Nc2ccc(F)c(F)c2)o1
inhibition [45]: Active | inhibition [46]: Active
